In patent publication EP4737450A1 (Longwood Pharmaceuticals (Hangzhou) Co., Ltd, priority 2023, dated 2025):
Read-outs that look alike come from different tables or passages of the source.

Experiments:
FXIa = FXIa (Homo sapiens, UniProt P03951); experiment: Inhibitory activity against FXIa in vitro (biochemical assay)
Experimental: Test Example 1. Test of the inhibitory activities of the compounds of the present invention against plasma kallikrein (PKa), KLK1 and FXIa in vitro.
PKK (R & D, Cat # 2497-SE) and Pro-Phe-Arg-AMC (Nanjing Peptide, Cat # NJP23946) solutions were prepared in reaction buffer (50 mM Tris-HCl, pH 7.5, 250 mM NaCl). The final concentrations of enzyme protein and Pro-Phe-Arg-AMC in the reaction mixture were 10 nM and 60 µM, respectively. The starting concentration of the positive reference substance Avoralstat was 100 nM, 3-fold dilution, 10 + 0 dose. 0.05 µL of compound in 100% DMSO was delivered to a 384-well plate by an acoustic liquid delivery technique (Echo665; nanoliter range). Compound duplex test. 5 µL of 2 × enzyme solution was transferred to a 384 reaction plate and centrifuged at 1000 rpm for 1 minute, incubated at 25°C for 15 minutes; 5 µL of 2 × Pro-Phe-Arg-AMC solution was transferred to a 384 reaction plate, centrifuged at 1000 rpm for 1 minute, incubated at 25°C for 3 hours. […] IC50 values and nonlinear regression curve fitting were obtained using GraphPad Prism software.

KLK1 = KLK1 (Homo sapiens, UniProt P06870); experiment: Inhibitory activity against KLK1 in vitro (biochemical assay)
Sequence of KLK1 (P06870 25-262, species assumed): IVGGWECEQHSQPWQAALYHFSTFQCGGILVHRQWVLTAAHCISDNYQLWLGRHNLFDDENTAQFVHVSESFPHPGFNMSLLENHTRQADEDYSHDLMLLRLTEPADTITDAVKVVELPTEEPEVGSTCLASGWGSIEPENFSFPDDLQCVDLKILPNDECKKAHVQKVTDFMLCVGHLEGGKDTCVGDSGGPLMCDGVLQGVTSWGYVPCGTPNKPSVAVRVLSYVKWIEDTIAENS
Text: Test Example 1. Test of the inhibitory activities of the compounds of the present invention against plasma kallikrein (PKa), KLK1 and FXIa in vitro. […]

plasma kallikrein (PKa) = target: T1, plasma kallikrein (PKa) (Homo sapiens, UniProt P03952); experiment: Inhibitory activity against plasma kallikrein in vitro (fluorescence intensity enzyme assay, Pro-Phe-Arg-AMC substrate); format: biochemical; conditions: Pro-Phe-Arg-AMC substrate
T1 construct: purchased R & D 2497-SE
T1 sequence (P03952 391-638 limits assumed): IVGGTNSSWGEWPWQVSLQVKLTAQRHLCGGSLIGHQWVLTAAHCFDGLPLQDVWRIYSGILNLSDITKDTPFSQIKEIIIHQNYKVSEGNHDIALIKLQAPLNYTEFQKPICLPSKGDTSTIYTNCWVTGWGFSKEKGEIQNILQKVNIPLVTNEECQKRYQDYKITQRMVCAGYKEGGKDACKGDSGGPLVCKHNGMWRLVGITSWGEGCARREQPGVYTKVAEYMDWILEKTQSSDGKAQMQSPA
T1 sequence (P03952 20-390 partner limits assumed): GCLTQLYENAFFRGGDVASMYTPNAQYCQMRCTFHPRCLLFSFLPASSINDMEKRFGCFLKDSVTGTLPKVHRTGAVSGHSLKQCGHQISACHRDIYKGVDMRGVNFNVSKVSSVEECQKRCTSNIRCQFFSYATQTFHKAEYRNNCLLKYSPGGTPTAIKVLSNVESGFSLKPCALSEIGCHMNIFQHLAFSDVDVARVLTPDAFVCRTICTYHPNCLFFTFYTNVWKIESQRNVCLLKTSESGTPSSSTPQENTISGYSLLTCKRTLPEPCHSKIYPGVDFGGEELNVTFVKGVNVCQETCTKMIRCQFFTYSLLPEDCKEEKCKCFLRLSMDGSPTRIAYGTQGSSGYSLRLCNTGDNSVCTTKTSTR
Outline: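 Fluorescence intensity enzyme assay with 10 nM enzyme and 60 µM Pro-Phe-Arg-AMC (final concentrations). Compounds in DMSO, tested in duplicate over a dose series. IC50 from nonlinear regression curve fitting.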

[1] = plasma kallikrein enzyme assay, read-out: PKa IC50
[2] = PKa IC50, plasma kallikrein enzyme assay

Sequence of FXIa (P03951 388-625 limits assumed): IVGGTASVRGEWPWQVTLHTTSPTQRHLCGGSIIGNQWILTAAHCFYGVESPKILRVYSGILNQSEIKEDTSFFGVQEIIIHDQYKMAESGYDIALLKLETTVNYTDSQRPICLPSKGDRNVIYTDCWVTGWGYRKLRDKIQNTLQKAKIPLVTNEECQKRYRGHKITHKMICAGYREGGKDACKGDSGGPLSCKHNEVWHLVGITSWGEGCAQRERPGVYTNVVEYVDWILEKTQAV
Sequence of FXIa (P03951 19-387 partner limits assumed): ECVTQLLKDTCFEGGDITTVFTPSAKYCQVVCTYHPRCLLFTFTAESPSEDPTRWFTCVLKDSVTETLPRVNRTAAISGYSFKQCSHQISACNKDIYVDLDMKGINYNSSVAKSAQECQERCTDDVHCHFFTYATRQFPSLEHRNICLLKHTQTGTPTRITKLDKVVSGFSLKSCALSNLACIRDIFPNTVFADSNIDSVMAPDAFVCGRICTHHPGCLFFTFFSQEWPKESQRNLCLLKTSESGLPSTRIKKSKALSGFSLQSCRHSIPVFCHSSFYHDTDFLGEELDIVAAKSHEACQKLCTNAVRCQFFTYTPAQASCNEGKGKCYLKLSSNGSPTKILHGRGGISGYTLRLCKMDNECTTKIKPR

| Structure (SMILES) | IC50 (FXIa; values in nM) [nM] | IC50 (KLK1; values in nM) [nM] | IC50 (plasma kallikrein (PKa); [1]) [nM] | IC50 (FXIa; values given in µM) [nM] | IC50 (KLK1; values given in µM) [nM] | IC50 (plasma kallikrein (PKa); [2]) [nM] |
| --- | --- | --- | --- | --- | --- | --- |
| Cc1cc(N)nc(C)c1CNC(=O)c1cn(Cc2ccc3ncc(Cl)cc3c2)nn1 [Compound 9, N-((6-amino-2,4-dimethylpyridin-3-yl)methyl)-1-(3-chloroquinolin-6-yl)methyl-1H-1,2,3-triazole-4-carboxamide] | < 500 | < 500 | 0.406 | – | – | – |
| N=C(N)c1ccc(CNC(=O)c2cnn(Cc3cc(F)c(C(=O)C4CC4)c(F)c3)c2)cc1 [Compound 394] | – | – | 1.56 | > 10000 | > 10000 | – |
| COCc1nn(Cc2ccc(Cn3ccccc3=O)cc2)cc1C(=O)NCc1c(C)cn2cncc2c1C [Compound 147] | – | – | – | > 10000 | > 10000 | 1.57 |
| N=C(N)c1ccc(CNC(=O)c2cnn(Cc3cc(Cl)c(CC4CC4)c(Cl)c3)c2)cc1 [Compound 372] | – | – | 0.85 | > 10000 | > 10000 | – |
| N=C(N)c1ccc(CNC(=O)c2cnn(Cc3cn4cc(C5CC5)ccc4n3)c2)cc1 [Compound 15] | – | – | 0.898 | > 10000 | > 10000 | – |
| Cc1cc(N)nc(C)c1CNC(=O)c1ccn(Cc2ccc(Cn3cccc(C)c3=O)cc2)n1 [Compound 75] | – | – | 0.22 | > 10000 | > 10000 | – |
| N=C(N)c1ccc(CNC(=O)c2cnn(Cc3ccc(OC4CCCC4)c(C(F)(F)F)c3)c2)cc1 [Compound 386] | – | – | 1.68 | > 10000 | > 10000 | – |
| COCc1nn(Cc2ccc(Cn3ccccc3=O)cc2)cc1C(=O)NCc1ccc2c(N)nccc2c1 [Compound 71] | – | – | 0.19 | > 10000 | > 10000 | – |
| N=C(N)c1ccc(CNC(=O)c2cnn(Cc3ccc(N4CCC(F)(F)CC4)c(C(F)(F)F)c3)c2)cc1 [Compound 387] | – | – | 0.08 | > 10000 | > 10000 | – |
| N=C(N)c1ccc(CNC(=O)c2cnn(Cc3ccc(CC4CC4)cc3)c2)cc1 [Compound 105] | – | – | 0.26 | > 10000 | > 10000 | – |
| N=C(N)c1ccc(CNC(=O)c2cnn(Cc3ccc(CC4CC4)cc3)c2)c(F)c1 [Compound 270] | – | – | 0.18 | > 10000 | > 10000 | – |
| CCOc1cc(Cn2cc(C(=O)NCc3ccc(C(=N)N)cc3)cn2)ccc1CC1CC1 [Compound 264] | – | – | 0.82 | > 10000 | > 10000 | – |
| O=C(NCc1ncc2cc[nH]c2c1F)c1cn(Cc2ccc(Cn3ccccc3=O)cc2)nc1C(F)(F)F [Compound 357] | – | – | 1.9 | > 10000 | > 10000 | – |
| Cc1cc(N)nc(C)c1CNC(=O)c1noc(Cc2ccc(Cn3ccccc3=O)cc2)n1 [Compound 48] | – | – | 0.38 | > 10000 | > 10000 | – |
| Cn1cnc2c1CC[C@H]2NC(=O)c1cn(Cc2cn3cc(C4CC4)ccc3n2)nn1 [Compound 35] | – | – | 1.65 | > 10000 | > 10000 | – |
| O=C(NCc1ncc2cc[nH]c2c1F)c1cn(Cc2ccc(Cn3ccccc3=O)cc2)nc1C1COC1 [Compound 337, N-((7-fluoro-1H-pyrrolo[3,2-c]pyridin-6-yl)methyl)-3-(oxetan-3-yl)-1-(4-((2-oxopyridin-1(2H)-yl)methyl)benzyl)-1H-pyrazole-4-carboxamide] | – | – | 2.23 | > 10000 | > 10000 | – |
| Cc1cc2nccn2c(C)c1CNC(=O)c1cnn(Cc2ccc(Cn3ccccc3=O)cc2)c1 [Compound 94] | – | – | 0.53 | > 10000 | > 10000 | – |
| Cn1ccc2cnc(CNC(=O)c3cn(Cc4ccc(Cn5ccccc5=O)cc4)nc3C(F)(F)F)c(F)c21 [Compound 378] | – | – | 1.41 | > 10000 | > 10000 | – |
| Cn1ccc2cnc(CNC(=O)c3cn(Cc4ccc(Cn5ccccc5=O)cc4)nc3C3COC3)c(F)c21 [Compound 338] | – | – | 1.38 | > 10000 | > 10000 | – |

| Structure (SMILES) | IC50 (FXIa; values in nM) [nM] | IC50 (KLK1; values in nM) [nM] | IC50 (plasma kallikrein (PKa); [1]) [nM] | IC50 (FXIa; values given in µM) [nM] | IC50 (KLK1; values given in µM) [nM] | IC50 (plasma kallikrein (PKa); [2]) [nM] |
| --- | --- | --- | --- | --- | --- | --- |
| O=C(NCc1ncc2c(c1F)NCC2)c1cnn(Cc2ccc(Cn3ccccc3=O)cc2)c1 [Compound 384] | – | – | 2.17 | > 10000 | > 10000 | – |
| N=C(N)c1ccc(CNC(=O)c2cnn(Cc3ccc(Cn4ccccc4=O)cc3)c2)cc1 [Compound 12] | – | – | 1.62 | > 10000 | > 10000 | – |
| COc1cc(Cn2cc(C(=O)NCc3ccc(C(=N)N)cc3)cn2)cc(OC)c1CC1CC1 [Compound 375] | – | – | 0.85 | > 10000 | > 10000 | – |
| N=C(N)c1ccc(CNC(=O)c2cnn(Cc3ccc(OC4CC4)cc3)c2)cc1 [Compound 354] | – | – | 2.45 | > 10000 | > 10000 | – |
| Cc1nc(N)c(C)c(C)c1CNC(=O)c1ncn(Cc2ccc(Cn3ccccc3=O)cc2)n1 [Compound 250] | – | – | 1.9 | > 10000 | > 10000 | – |
| COCc1nn(Cc2c(F)c(F)c(Cn3cc(F)ccc3=O)c(F)c2F)cc1C(=O)NCc1c(C)cc(N)nc1C [Compound 49] | – | – | 2.78 | > 10000 | > 10000 | – |
| Cc1cn2cncc2c(C)c1CNC(=O)c1cn(Cc2ccc(Cn3ccccc3=O)cc2)nc1C(F)(F)F [Compound 203] | – | – | 0.53 | > 10000 | > 10000 | – |
| Cc1nc(N)ccc1CNC(=O)c1ncn(Cc2ccc(Cn3ccccc3=O)cc2)n1 [Compound 27] | – | – | 1.48 | > 10000 | > 10000 | – |
| N=C(N)c1ccc(CNC(=O)c2cnn(Cc3ccc(OC4CC4)c(C(F)(F)F)c3)c2)cc1 [Compound 379] | – | – | – | > 10000 | > 10000 | 0.97 |
| CCn1cnc2c1CC[C@H]2NC(=O)c1cn(Cc2ccc(Cn3ccccc3=O)cc2)nc1COC [Compound 130] | – | – | 1.09 | > 10000 | > 10000 | – |
| Cn1ccc2cnc(CNC(=O)c3cnn(Cc4ccc(Cn5ccccc5=O)cc4)c3)c(F)c21 [Compound 356] | – | – | 2.23 | > 10000 | > 10000 | – |
| CN1CCc2cnc(CNC(=O)c3cn(Cc4ccc(Cn5ccccc5=O)cc4)nc3C(F)(F)F)c(F)c21 [Compound 389] | – | – | 1.45 | > 10000 | > 10000 | – |
| O=C(NCc1ncc2c(c1F)OCC2)c1cnn(Cc2ccc(Cn3ccccc3=O)cc2)c1 [Compound 395] | – | – | 1.68 | > 10000 | > 10000 | – |
| N=C(N)c1ccc(CNC(=O)c2cnn(Cc3ccc(N4CC5C(C4)C5(F)F)c(C(F)(F)F)c3)c2)cc1 (stereo not drawn) [Compound 382] | – | – | 0.15 | > 10000 | > 10000 | – |
| COCc1nn(Cc2ccc(Cn3ccccc3=O)cc2)cc1C(=O)NCc1cn2c(n1)CNCC2 [Compound 118] | – | – | 0.92 | > 10000 | > 10000 | – |
| Cc1cc(N)nc(C)c1CNC(=O)c1nnc(Cc2ccc(Cn3ccccc3=O)cc2)[nH]1 [Compound 44] | – | – | 0.39 | > 10000 | > 10000 | – |
| N=C(N)c1ccc(CNC(=O)c2cnn(Cc3c(Cl)cc(CC4CC4)cc3Cl)c2)cc1 [Compound 347] | – | – | 1.04 | > 10000 | > 10000 | – |
| N#Cc1cc(N2CC3C(C2)C3(F)F)ccc1Cn1cnc(C(=O)NCc2ccc3c(N)nccc3c2)n1 (stereo not drawn) [Compound 43] | – | – | 0.92 | > 10000 | > 10000 | – |
| COc1ccc(F)c(CNC(=O)c2cn(Cc3ccc(Cn4ccccc4=O)cc3)nc2COCCN(C)C)c1F [Compound 222] | – | – | 1.94 | > 10000 | > 10000 | – |
